Test systems include KM20L2 colon; RXF-631 renal; DMS 114 small cell lung; SNB-78 CNS; LXFL 529 NSCLC; HOP-18 NSCLC; M19-MEL melanoma; DLD-1 colon; MDA-N; P388/ADR leukemia; P388 leukemia.
Holding throughout (assay): NCI tumour cell line growth inhibition, 48 h

Several values for one entry are separate records, joined by “and”; a condition that tells them apart may be missing. Equal values may be shown once.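 Each compound was tested at five concentrations against cells in 96-well plates for 48 hours. GI50: concentration for 50% inhibition of growth. At the TGI there is no net growth.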 Bounds are passed on as bounds.

As to `COCCOCOC(C)(C)[C@H](CCOC(C)=O)O[Si](c1ccccc1)(c1ccccc1)C(C)(C)C`, the TGI in the assay with KM20L2 colon is greater than 100 µM; in the assay with RXF-631 renal, 43.1 µM; in the assay with DMS 114 small cell lung it was 55.4 µM; in the assay on SNB-78 CNS it was 97.4 µM; with LXFL 529 NSCLC, greater than 100 µM; in the assay with HOP-18 NSCLC, greater than 100 µM. For the same compound, the TGI with M19-MEL melanoma is 43.2 µM; in the assay with DLD-1 colon, greater than 100 µM.
Turning to `NC(=O)C12CC3CC(CC(Br)(C3)C1)C2`, the TGI in the assay on KM20L2 colon, in the assay on RXF-631 renal, with DMS 114 small cell lung, with SNB-78 CNS, with LXFL 529 NSCLC and with HOP-18 NSCLC was greater than 100 µM each time. In the assay on DLD-1 colon, this compound had a TGI greater than 100 µM.
Take `O=[N+]([O-])c1ccc2c(Nc3ccccc3-c3ccccc3Nc3c4ccccc4nc4cc([N+](=O)[O-])ccc34)c3ccccc3nc2c1`: the TGI is greater than 65 µM in the assay on KM20L2 colon; greater than 82.9 µM in the assay with RXF-631 renal; 27.3 µM in the assay with DMS 114 small cell lung; greater than 100 µM in the assay on SNB-78 CNS; greater than 35.1 µM in the assay with LXFL 529 NSCLC; greater than 100 µM in the assay with HOP-18 NSCLC. Besides, the TGI in the assay with MDA-N is 3.29 µM; in the assay with M19-MEL melanoma, 19.8 µM; in the assay on DLD-1 colon, greater than 48.4 µM.
As for `COc1ccc(Cc2nc3ccccc3s2)cc1OC`, the TGI in the assay with KM20L2 colon is 36.5 µM; with RXF-631 renal, 31.7 µM; with DMS 114 small cell lung it was 29.9 µM; in the assay on SNB-78 CNS it was 44.8 µM; with LXFL 529 NSCLC, 31.4 µM; in the assay on HOP-18 NSCLC, 62.2 µM. Moreover, the TGI with M19-MEL melanoma turned out to be 29.4 µM; in the assay with DLD-1 colon it was 31.7 µM.
For `COc1cc(/C=C\c2ccncc2)cc(OC)c1OC`, the TGI in the assay with KM20L2 colon, in the assay on RXF-631 renal, in the assay with DMS 114 small cell lung, in the assay with SNB-78 CNS, in the assay on LXFL 529 NSCLC and with HOP-18 NSCLC was greater than 100 µM each time. Besides, in the assay with DLD-1 colon, the TGI was greater than 100 µM.
For `COC(=O)C#CCC1CCCC1C1SCCS1` (centres undefined), the TGI in the assay on KM20L2 colon, in the assay on RXF-631 renal, with DMS 114 small cell lung, with SNB-78 CNS, in the assay with LXFL 529 NSCLC and in the assay with HOP-18 NSCLC was greater than 100 µM throughout. For the same compound, the TGI with M19-MEL melanoma and in the assay on DLD-1 colon was greater than 100 µM each time.
With `CCN(CC)CCCC(C)Nc1c(Sc2cnc3cc(Cl)ccc3c2NC(C)CCCN(CC)CC)cnc2cc(Cl)ccc12` (centres undefined), the TGI in the assay with KM20L2 colon stood at 3.09 µM; in the assay on RXF-631 renal, 4.48 µM; with SNB-78 CNS it was 4.74 µM; in the assay on LXFL 529 NSCLC it was 3.38 µM; in the assay with HOP-18 NSCLC, 4.49 µM; in the assay on M19-MEL melanoma, 3.02 µM. Also, the TGI with DLD-1 colon was determined as 3.84 µM.
As for `C#C[C@H]1CCCCCC1O` (some centres undefined), the TGI with KM20L2 colon, with RXF-631 renal, in the assay with DMS 114 small cell lung, with SNB-78 CNS, with LXFL 529 NSCLC and with HOP-18 NSCLC was greater than 100 µM each time. The TGI with M19-MEL melanoma and in the assay on DLD-1 colon was greater than 100 µM throughout.
Consider `COc1cccc2c1[C@H]1CO[C@H]3C4C[C@H](C(=O)O)C([C@@H](C2)N13)N4C` (some centres undefined), for which the TGI was 7.84 µM in the assay with KM20L2 colon; 4.66 µM and 0.803 µM in the assay with DMS 114 small cell lung; 0.652 µM in the assay on P388/ADR leukemia; 9.27 µM and > 30.5 µM with SNB-78 CNS; 4.98 µM in the assay with LXFL 529 NSCLC; greater than 27.5 µM in the assay on HOP-18 NSCLC. Further, the TGI in the assay on MDA-N was 0.406 µM; in the assay with M19-MEL melanoma, 9.62 µM and 1.32 µM; in the assay on DLD-1 colon, 7.81 µM and 17.4 µM; in the assay on P388 leukemia it was 5.25 µM. Moreover, the GI50 with DMS 114 small cell lung is 0.187 µM; with SNB-78 CNS it was 0.388 µM; in the assay with HOP-18 NSCLC it was 1.13 µM; in the assay on M19-MEL melanoma, 0.611 µM; in the assay with DLD-1 colon, 0.452 µM.
As for `COc1ccc(-c2onc(-c3c(C)cc(C)cc3C)c2C2=NCCN2)cc1`, the TGI in the assay on KM20L2 colon, with RXF-631 renal, in the assay with SNB-78 CNS, in the assay with LXFL 529 NSCLC, in the assay with HOP-18 NSCLC and with M19-MEL melanoma was greater than 100 µM in each case. Further, in the assay on DLD-1 colon, the TGI was greater than 100 µM.
Turning to `CC(=O)NNc1nc(C)c(C(=O)/C=C/c2ccc(/C=C/C(=O)c3sc(NNC(C)=O)nc3C)cc2)s1`, the TGI in the assay on RXF-631 renal, in the assay with DMS 114 small cell lung, with SNB-78 CNS, in the assay with LXFL 529 NSCLC, with M19-MEL melanoma and in the assay on DLD-1 colon was greater than 100 µM each time.
`O=C(COc1ccc(Cl)cc1)N1CCN(C(=O)COc2ccc(Cl)cc2)c2ccccc21`: the TGI with KM20L2 colon, with DMS 114 small cell lung, in the assay with SNB-78 CNS, in the assay on LXFL 529 NSCLC, in the assay on HOP-18 NSCLC and with M19-MEL melanoma was greater than 100 µM throughout. The TGI in the assay on DLD-1 colon was greater than 100 µM.
As for `Cn1nnc2c(C(N)=O)ncn2c1=O`, the TGI in the assay with KM20L2 colon, with DMS 114 small cell lung, in the assay on SNB-78 CNS, with LXFL 529 NSCLC, in the assay on HOP-18 NSCLC and with MDA-N was greater than 100 µM throughout. Besides, the TGI with M19-MEL melanoma and with DLD-1 colon was greater than 100 µM in each case.
For `CCC[CH2][Sn]([CH2]CCC)([O]C(=O)/C=C/c1ccccc1F)[O]C(=O)/C=C/c1ccccc1F`, the GI50 is 1.34 µM in the assay on KM20L2 colon; 0.253 µM with RXF-631 renal; 0.445 µM with DMS 114 small cell lung; 0.452 µM with SNB-78 CNS; 0.131 µM in the assay with LXFL 529 NSCLC; 1.62 µM in the assay with HOP-18 NSCLC. Besides, the GI50 was 0.891 µM in the assay with M19-MEL melanoma and 0.393 µM in the assay on DLD-1 colon. Besides, the TGI is 2.64 µM in the assay on KM20L2 colon; 0.972 µM in the assay with RXF-631 renal; 1.46 µM in the assay with DMS 114 small cell lung; 1.7 µM in the assay on SNB-78 CNS; 0.304 µM with LXFL 529 NSCLC; 2.98 µM in the assay with HOP-18 NSCLC. Besides, the TGI with M19-MEL melanoma is 2.78 µM; with DLD-1 colon, 1.5 µM.
In the case of `CCCCCCCCCCCCCP(=O)(NCC(N)=O)OCC` (centres undefined), the TGI in the assay on KM20L2 colon turned out to be 32.7 µM; in the assay on RXF-631 renal it was 35.5 µM; in the assay with DMS 114 small cell lung, 33.4 µM; with SNB-78 CNS, 41.2 µM; in the assay on LXFL 529 NSCLC, 30.8 µM; in the assay on HOP-18 NSCLC, 14.8 µM. Also, the TGI with M19-MEL melanoma stood at 35.2 µM; with DLD-1 colon it was 32.7 µM.
On to `Cc1nc2c(sc(=S)n2-c2ccccc2)c2nc3ccccc3n12`, for which the TGI in the assay on RXF-631 renal, with DMS 114 small cell lung, in the assay with SNB-78 CNS, in the assay on LXFL 529 NSCLC, with HOP-18 NSCLC and with M19-MEL melanoma was greater than 100 µM throughout. Besides, in the assay with DLD-1 colon, the TGI was greater than 100 µM.
Take `Cc1ccc(NC(=O)CC2SC(N)=NC2=O)cc1C` (centres undefined): the TGI with KM20L2 colon, in the assay on RXF-631 renal, in the assay with SNB-78 CNS, with LXFL 529 NSCLC and in the assay with DLD-1 colon was greater than 100 µM throughout.
On to `O=NN(CCCl)C(=O)NC1CCC(=O)NC1=O` (centres undefined), for which the TGI is greater than 1250 µM in the assay with KM20L2 colon; 814 µM in the assay on DMS 114 small cell lung; 399 µM in the assay on P388/ADR leukemia; 864 µM in the assay on SNB-78 CNS; 1070 µM in the assay with HOP-18 NSCLC; 791 µM with MDA-N. Moreover, the results for the TGI in the assay on M19-MEL melanoma, with DLD-1 colon and with P388 leukemia were 972 µM, 1050 µM and 256 µM, respectively.
As to `O=C(O)COc1ccc(C(=O)/C(SS/C(C(=O)c2ccc(OCC(=O)O)c(Cl)c2Cl)=C2\C=C(c3ccc(Br)cc3)SS2)=C2/C=C(c3ccc(Br)cc3)SS2)c(Cl)c1Cl`, the TGI with KM20L2 colon is greater than 100 µM; in the assay with DMS 114 small cell lung, 6.76 µM; with SNB-78 CNS, 36.5 µM; in the assay on LXFL 529 NSCLC it was 8.98 µM; in the assay on HOP-18 NSCLC, 39.9 µM; in the assay with M19-MEL melanoma, greater than 100 µM. This compound registered a TGI with DLD-1 colon greater than 63.2 µM.
For the compound `Nc1ccc(C(=O)N/C(=C\c2cccc([N+](=O)[O-])c2)c2nc3ccc(Cl)cc3[nH]2)cc1`, the TGI in the assay on KM20L2 colon, with RXF-631 renal, in the assay on DMS 114 small cell lung, with SNB-78 CNS, with LXFL 529 NSCLC and in the assay with M19-MEL melanoma was greater than 100 µM throughout. In addition, the TGI in the assay on DLD-1 colon was greater than 100 µM.

Source of the values: PubChem BioAssay (NCI).
